Assay results as given in patent US7371834B2, “Apoptosis-inducing factor” (Amgen Inc., priority 1998, dated 2008).
Peptide text beside a SMILES is read from it. * marks the point of attachment. Cbz = O=C(OCc1ccccc1)*; CH2F = FC*

How the values were obtained:
[1] = tested on: HeLa nuclei; test: Pulse field gel electrophoresis of DNA from AIF-treated HeLa nuclei; type: biochemical; conditions: 90 min with 100 ng AIF; 200 μM p-chloromercuryphenylsulfonic acid, 200 μM Z-VAD.fmk, 5 mM EDTA
Experimental: In addition, each nuclear preparation was assessed for the frequency of hypoploid nuclei as in A.
(§1) 2B4.11 T cell hybridoma cells stably transfected with a SFFV.neo vector containing the human bcl-2 gene or the neomycin resistance gene (Neo) only [Susin et al., J. Exp. Med. 184:1331-1342 (1996)] were subjected to mechanical lysis and differential centrifugation for the subsequent recovery of nuclei, mitochondria, and organelle-free cytosols [Liu et al. Cell 86:147-157 (1996)]. Submitochondrial fractionation of mouse liver mitochondria was controlled by the determination of suitable marker enzymes [Susin et al., J. Exp. Med. 186:25-37 (1997); Pedersen et al., Meth. Cell Biol. 20:411-481 (1978)]. Purified HeLa cell nuclei were exposed to different preparations of AIF, and nuclear apoptosis was quantitated by staining with DNA-intercalating propidium iodide and cytofluorometric determination of DNA content [Susin et al., J. Exp. Med. 186:25-37 (1997)]. Alternatively, nuclei were stained with Hoechst 33342 dye or subjected to DNA extraction and pulse field gel electrophoresis. […] The release of cytochrome c and caspase-9 into the supernatant was measured by immunoblot using a monoclonal anti-cytochrome c antibody (7H8.2C12, Pharmingen), or a rabbit antibody directed against the large subunit of caspase-9 (Hazelton Research Products Inc., Denver, Pa.).

[2] = tested on: purified rat liver mitochondria; test: Large amplitude swelling of purified mitochondria; type: biochemical; conditions: Z-VAD.fmk 100-200 μM
Experimental: Purified rat liver mitochondria were monitored continuously for large amplitude swelling. Arrows indicate the addition of Ca^2+(200 μM; positive control), AIF (100 ng/ml), cytosol (100 μg protein per ml), and/or Z-VAD.fmk (100 μM, pre-added to the cytosol/AIF mixture). Note that only the combined addition of AIF plus cytosol (right panel) causes mitochondrial swelling.
as §1, with “Submitochondrial fractionation of mouse liver mitochondria was controlled by the determination of suitable marker enzymes [Susin et al., J. Exp. Med. 186:25-37 (1997); Pedersen et al., Meth. Cell Biol. 20:411-481 (1978)].” left out, “(1997)].” for “(1997)]. Alternatively, nuclei were stained with Hoechst 33342 dye or subjected to DNA extraction and pulse field gel electrophoresis.”

[3] = tested on: Rat-1 cells; test: Microinjection into the cytoplasm of Rat-1 cells, quantitation of apoptosis; type: cell-based; conditions: 100 μM Z-VAD.fmk
Experimental: FIGS. 4A-4D show the effects of AIF on intact cells. […] Buffer only or recombinant AIF (10 μM) were injected into the cytoplasm of Rat-1 cells, which were cultured for 90 min in the absence or presence of 100 μM Z-VAD.fmk (added 15 min before injection). Microinjected cells could be identified because the injectate contained FITC-dextran (green fluorescence not shown). Representative (three independent experiments, 100-200 microinjected cells per session) microphotographs of viable cells stained with the DYm-sensitive dye CMXRos and Hoechst 33342 (as in FIG. 2E., upper panels) or Annexin-V, which labels surface-exposed phosphatidylserine residues (red fluorescence in lower panels).
(§2) Rat-1 fibroblast cells were microinjected (pressure 150 hPa; 0.2 sec; Marzo et al., Science 281:2027-2031 (1998)) with buffer only, atractyloside (50 μM), dialyzed antisera, AIF-derived peptides (100 μM), horse cytochrome c (Sigma), or the indicated dose of recombinant mAIF. The caspase inhibitor Z-VAD.fmk (100 μM; Bachem, Basel Switzerland) was added to the culture medium 30 min before microinjection into the cytoplasm (pressure 150 hPa; 0.2 sec). […] Microinjected viable cells (100-200 per session, two to three independent sessions of injection) were identified by inclusion of 0.25% (w:v) FITC-dextran (green fluorescence) in the injectate. Only the blue or red fluorescence was recorded. […]

[4] = tested on: caspase; test: Cleavage of caspase substrate by mitochondrial supernatants; type: biochemical
Experimental: The same mitochondrial supernatants as in FIG. 3F were tested for their capacity to cleave the caspase substrate Z-VAD.afc, leading to the generation of the fluorochrome afc. The 100% value refers to the enzymatic activity obtained by osmotic lysis of mitochondria

[5] = tested on: isolated mitochondria; test: Release of cytochrome c and caspase-9 from isolated mitochondria (immunoblot of supernatants); type: biochemical, rat; conditions: rec. AIF+cytosol+Z-VAD.fmk
Experimental: Isolated mitochondria were subjected to osmotic lysis (1) or treated as in A (15 min) with buffer only (2), rec. AIF (3), cytosol (4), rec. AIF+cytosol (5), or rec. AIF+cytosol+Z-VAD.fmk (6) and their supernatants were subjected to immunoblot analysis of cytochrome c and caspase-9.
as §1, with “Cell Biol. 20:411-481 (1978)].” left out, “(1997)].” for “(1997)]. Alternatively, nuclei were stained with Hoechst 33342 dye or subjected to DNA extraction and pulse field gel electrophoresis.”

[6] = tested on: Rat-1 cells; test: Microinjection of anti-AIF antiserum into Rat-1 cells treated with atractyloside or staurosporin; type: cell-based; conditions: for retention of DYm-sensitive dye CMXRos by cells: atractyloside 50 μM injected, staurosporin 1 μM, 120 min
Experimental: Rat-1 cells were microinjected with atractyloside (ATR, 50 μM) alone, or atractyloside diluted in control serum, anti-AIF antiserum, and/or 100 μM AIF-derived immunogenic peptides. 180 min after microinjection, cells were stained with Hoechst 33342 and CMXRos (as in FIG. 4A, upper panel). Alternatively, cells were cultured for 120 min with staurosporin (1 μM, as in FIGS. 2C-2E), added to the culture medium after microinjection of control antiserum or anti-AIF.
Rat-1 fibroblast cells were microinjected (pressure 150 hPa; 0.2 sec; Marzo et al., Science 281:2027-2031 (1998)) with buffer only, atractyloside (50 μM), dialyzed antisera, AIF-derived peptides (100 μM), horse cytochrome c (Sigma), or the indicated dose of recombinant mAIF. The caspase inhibitor Z-VAD.fmk (100 μM; Bachem, Basel Switzerland) was added to the culture medium 30 min before microinjection into the cytoplasm (pressure 150 hPa; 0.2 sec). […] Microinjected viable cells (100-200 per session, two to three independent sessions of injection) were identified by inclusion of 0.25% (w:v) FITC-dextran (green fluorescence) in the injectate. Only the blue or red fluorescence was recorded. Transfection of Jurkat T lymphoma cells was performed using AIF cloned in pcDNA3.1 (Invitrogen) vector and Lipofectamine® (Gibco Life Technologies). Cytofluorometric analyses of apoptosis-associated parameters were performed as described [Kroemer et al., “Detection of apoptosis and apoptosis associated alterations,” “The Immunology Methods Manual” (Lefkovitz, R. Ed.); Academic Press, Chapter 14.2., pp. 1111-1125 (1997)].

[7] = tested on: mouse liver mitochondria; test: AIF liberation from mitochondria by PT pore opening (Western blot of supernatants); type: biochemical; conditions: 5 mM atractyloside, 200 μM Ca2+
Experimental: FIGS. 2A-2F show the submitochondrial and subcellular distribution of AIF in normal and apoptotic cells. […] Western blots were performed on total mouse liver mitochondrion lysate (1), proteins from the matrix (2), inner membrane (3), intermembrane space (4), outer membrane (5), the supernatant of untreated mitochondria (6), or that of mitochondria treated with 5 mM atractyloside (7), 200 μM Ca^2+ (8), 1 μM cyclosporin A (9), atractyloside+CsA (10), or Ca^2++cyclosporin A (11). In addition, the supernatant of atractyloside-treated mitochondria was sham-immunodepleted using a pre-immune serum (12), or AIF-immunodepleted in the absence (13) or presence (14) of AIF-derived immunogenic peptides (see Example 2, below) capable of blocking the AIF antiserum. Aliquots of each preparation were tested for their capacity to induce nuclear hypoploidy in isolated HeLa nuclei.

[8] = tested on: Rat-1 fibroblasts; test: Nuclear phenotype of staurosporine-treated Rat-1 fibroblasts; type: cell-based; conditions: Neo cells; staurosporine 1 μM, 2 h
Description: In Neo cells, staurosporine treatment leads to the generation of two phenotypes, one with partial chromatin condensation (˜80% of cells, stage I), and another with more advanced chromatin condensation and nuclear fragmentation (˜20% of cells, stage II), as identified by phase contrast microscopy or counter-staining with Hoechst 33342 (not shown). Arrow heads are placed in the center of the nucleus.
Specifically, Rabbit antiserum was generated against a mixture of 3 peptides derived from the mAIF amino acid sequence (amino acid nos. 151-170, 166-185, 181-200, coupled to KLH). This antiserum (ELISA titer ˜10.000) was used in immunoblots (1/2000) and on paraformaldehyde/picrylic acid-fixed [Bossy-Wetzel et al., EMBO J. 17:37-49 (1998)] […] Cytochrome c was detected by immunofluorescence (mAb 6H2.B4 from Pharmingen) in fixed Rat-1 cells transfected with a control vector (Neo) or with human Bcl-2 [Zhu et al., EMBO J. 15:4130-4141 (1996)] as described [Bossy-Wetzel et al., EMBO J. 17, 37-49 (1998)], whereas the DYm sensitive dye CMXRos (100 nM, red fluorescence) was used on live cells [Marzo et al., Science 281, 2027-2031 (1998)]. Cells were counterstained with the Hoechst 33342 dye (1 μM, blue fluorescence). […]

[9] = tested on: Jurkat cells; test: Transfection-enforced AIF overexpression in Jurkat cells; type: cell-based; conditions: 24 hours after transfection
Experimental: Jurkat cells were transiently transfected with pcDNA3.1 vector only (control) or mouse AIF cDNA (under the control of a cytomegalovirus promoter, see pcDNA3.1 vector from Invitrogen). After 24 hours of culture, cells were stained with the indicated fluorochromes to determine the frequency of apoptosis-associated alterations: loss of DYm (fluorochrome: DiOC(6)3), phosphatidylserine exposure (fluorochrome: Annexin V-FITC), or loss of nuclear DNA (fluorochrome: propidium iodide, PI, after ethanol permeabilization). Numbers refer to the percentage of cells bearing apoptotic characteristics. Results are representative of 3 different experiments.
as §2

## O=C(O)CN(CCN(CC(=O)O)CC(=O)O)CC(=O)O [EDTA]
[1]
  inhibition of AIF-induced large-scale DNA fragmentation: inhibited

## COC(=O)C[C@H](NC(=O)[C@H](C)NC(=O)[C@@H](NC(=O)OCc1ccccc1)C(C)C)C(=O)CF [Z-VAD.fmk] (Cbz-Val-Ala-Asp(OMe)-CH2F)
[2]
  prevention of AIF effects on isolated nuclei or on mitochondria: None of these AIF effects, either on isolated nuclei or on mitochondria, is prevented
[3]
  inhibition of effects mediated by microinjected AIF: None of the effects mediated by microinjected AIF is inhibited
[3]; microinjected cytochrome c
  prevention of cytochrome c-induced apoptosis: succeeds in preventing cytochrome c-induced, caspase-dependent apoptosis
[4]
  inhibition of caspase-substrate-cleaving activity in supernatant of mitochondria treated with AIF plus cytosol: Z-VAD.fmk-inhibitable
[5]
  inhibition of AIF-induced release of caspase-9: does not inhibit the release of caspase-9 but rather interferes with its proteolytic activation

## C=C1[C@@H]2CC[C@H]3[C@]4(C)C[C@H](O[C@@H]5O[C@H](CO)[C@@H](OS(=O)(=O)O)[C@H](OS(=O)(=O)O)[C@H]5OC(=O)CC(C)C)C[C@@H](C(=O)O)[C@H]4CC[C@]3(C2)[C@H]1O [atractyloside]
[6]
  retention of DYm-sensitive dye CMXRos by cells: do not retain the DYm-sensitive dye CMXRos
[7]
  release of 57 kDa AIF protein from mitochondria: released upon PT pore opening

## [Ca+2] [calcium]
[7]
  release of 57 kDa AIF protein from mitochondria: released upon PT pore opening

## O=S(=O)(O)c1cc[c]([Hg][Cl])cc1 [p-chloromercuryphenylsulfonic acid]
[1]
  inhibition of AIF-induced large-scale DNA fragmentation: inhibited

## CN[C@@H]1C[C@H]2O[C@@](C)([C@@H]1OC)n1c3ccccc3c3c4c(c5c6ccccc6n2c5c31)C(=O)NC4 [staurosporine]
[8]
  cells with more advanced chromatin condensation and nuclear fragmentation (stage II): ~20 % of cells
  cells with partial chromatin condensation (stage I): ~80 % of cells
[6]
  retention of DYm-sensitive dye CMXRos by cells: do not retain the DYm-sensitive dye CMXRos

## CC(C)(C)OO [tert-butylhydroperoxide]
[7]
  release of 57 kDa AIF protein from mitochondria: released upon PT pore opening

## immunogenic peptides: 3 peptides derived from the mAIF amino acid sequence (amino acid nos. 151-170, 166-185, 181-200) (peptide 1 LLIGGGTAAFAAARSIRARD; peptide 2 IRARDPGARVLIVSEDPELP; peptide 3 DPELPYMRPPLSKELWFSDD)
[6]; 100 μM AIF-derived immunogenic peptides
  inhibitory effect of AIF-specific antibody when co-injected with excess immunogenic peptides: No such inhibitory effect is observed

B1: wild type AIF: AIF overexpressed in Jurkat cells by transient transfection of mouse AIF cDNA in pcDNA3.1 (protein, UniProt Q9Z0X1 1-612, looked up)
chain: MFRCGGLAGAFKQKLVPLVRTVYVQRPKQRNRLPGNLFQQWRVPLELQMARQMASSGSSGGKMDNSVLVLIVGLSTIGAGAYAYKTIKEDQKRYNERVMGLGLSPEEKQRRAIASATEGGSVPQIRAPSHVPFLLIGGGTAAFAAARSIRARDPGARVLIVSEDPELPYMRPPLSKELWFSDDPNVTKTLQFRQWNGKERSIYFQPPSFYVSAQDLPNIENGGVAVLTGKKVVHLDVRGNMVKLNDGSQITFEKCLIATGGTPRSLSAIDRAGAEVKSRTTLFRKIGDFRALEKISREVKSITVIGGGFLGSELACALGRKSQASGIEVIQLFPEKGNMGKILPQYLSNWTMEKVKREGVKVMPNAIVQSVGVSGGRLLIKLKDGRKVETDHIVTAVGLEPNVELAKTGGLEIDSDFGGFRVNAELQARSNIWVAGDAACFYDIKLGRRRVEHHDHAVVSGRLAGENMTGAAKPYWHQSMFWSDLGPDVGYEAIGLVDSSLPTVGVFAKATAQDNPKSATEQSGTGIRSESETESEASEITIPPSAPAVPQVPVEGEDYGKGVIFYLRDKVVVGIVLWNVFNRMPIARKIIKDGEQHEDLNEVAKLFNIHED
modifications: full-length
[9]
  apoptosis-associated alterations after AIF overexpression: induces DYm collapse, phosphatidylserine exposure, and hypoploidy
